Consider twelve compounds from BindingDB's records for doi:10.1021/jm000317+ (Virginia Commonwealth University, 2001).

The test in a line: Ki value determined against Sigma opioid receptor type 2 using [3H]DTG(5 nM) with 1uM dextrallorphan to mask sigma1 binding.

For the compound `CC1C2Cc3ccc(O)cc3[C@@]1(C)CCN2CCC#N` (some centres not stated) [3-(8-Hydroxy-6,11-dimethyl-1,2,5,6-tetrahydro-4H-2,6-methano-benzo[d]azocin-3-yl)-propionitrile], the Ki is more than 100 µM.

The compound `C=CCN1CC[C@]2(C)c3cc(O)ccc3CC1C2C` (some centres not stated) [3-Allyl-6,11-dimethyl-1,2,3,4,5,6-hexahydro-2,6-methano-benzo[d]azocin-8-ol] gave an inhibition constant (Ki) of 27 µM. The same measure for `C=CCCN1CC[C@]2(C)c3cc(O)ccc3CC1C2C` (some centres not stated) [3-But-3-enyl-6,11-dimethyl-1,2,3,4,5,6-hexahydro-2,6-methano-benzo[d]azocin-8-ol]: 7.6 µM. The same measure for `C#CCCN1CC[C@]2(C)c3cc(O)ccc3CC1C2C` (some centres not stated) [3-But-3-ynyl-6,11-dimethyl-1,2,3,4,5,6-hexahydro-2,6-methano-benzo[d]azocin-8-ol]: 15 µM; for `C=CCCCCN1CC[C@]2(C)c3cc(O)ccc3CC1C2C` (some centres not stated) [3-Hex-5-enyl-6,11-dimethyl-1,2,3,4,5,6-hexahydro-2,6-methano-benzo[d]azocin-8-ol]: 0.76 µM. `CC1C2Cc3ccc(O)cc3[C@@]1(C)CCN2CCCC#N` (some centres not stated) [4-(8-Hydroxy-6,11-dimethyl-1,2,5,6-tetrahydro-4H-2,6-methano-benzo[d]azocin-3-yl)-butyronitrile] registered a Ki of 34 µM. The same measure for `CC1C2Cc3ccc(O)cc3[C@@]1(C)CCN2CCCCC#N` (some centres not stated) [5-(8-Hydroxy-6,11-dimethyl-1,2,5,6-tetrahydro-4H-2,6-methano-benzo[d]azocin-3-yl)-pentanenitrile]: 13 µM; for `C=CCCCN1CC[C@]2(C)c3cc(O)ccc3CC1C2C` (some centres not stated) [6,11-Dimethyl-3-pent-4-enyl-1,2,3,4,5,6-hexahydro-2,6-methano-benzo[d]azocin-8-ol]: 2.5 µM. For the compound `C#CCCCN1CC[C@]2(C)c3cc(O)ccc3CC1C2C` (some centres not stated) [6,11-Dimethyl-3-pent-4-ynyl-1,2,3,4,5,6-hexahydro-2,6-methano-benzo[d]azocin-8-ol], the Ki turned out to be 3.5 µM. `CC1C2Cc3ccc(O)cc3[C@@]1(C)CCN2CCCCCC#N` (some centres not stated) [6-(8-Hydroxy-6,11-dimethyl-1,2,5,6-tetrahydro-4H-2,6-methano-benzo[d]azocin-3-yl)-hexanenitrile] displayed a Ki of 5.7 µM. The result for `CC1C2Cc3ccc(O)cc3[C@@]1(C)CCN2CCCCCCC#N` (some centres not stated) [7-(8-Hydroxy-6,11-dimethyl-1,2,5,6-tetrahydro-4H-2,6-methano-benzo[d]azocin-3-yl)-heptanenitrile] reads 1.9 µM; that for `CC1C2Cc3ccc(O)cc3[C@@]1(C)CCN2CC#N` (some centres not stated) [(8-Hydroxy-6,11-dimethyl-1,2,5,6-tetrahydro-4H-2,6-methano-benzo[d]azocin-3-yl)-acetonitrile], 93 µM.

Usually Ki stands for a measure of affinity in units of concentration, obtained from inhibition or displacement. A high value points to lower affinity.
